We go through 5 compounds from PMC9794698, “Structure optimization of new tumor-selective Passerini α-acyloxy carboxamides as Caspase-3/7 activators” (Scientific Reports, 2022).

The structures appear in SMILES notation. Where “and” joins values, the source holds several entries; their conditions need not be identical. Identical values can stand only once. Like-named read-outs stand apart in the source and are kept apart here.

The subject of data set [1] is HepG-2 cells. The arrangement: method as in PMID 30826510. The following applies: previously studied nitro lead, cited from earlier work.
The subject of data set [2] is Wi-38 cells. The arrangement: method as in PMID 30826510. The following applies: MTT; previously studied nitro lead; cited from earlier work.
The subject of data set [3] is caspase-3/7. Put plainly: Caspase-3/7 activation assay (ApoONE kit) in HepG-2 cells. Conditions: HepG-2 cells treated with IC50 doses; relative to untreated cells; mean ± SEM. The class given is cell-based, human. As to the method:
(§1) ApoONE® Caspase-3/7 kit was used following the manufacturer’s instructions (Supplementary data).
(§2) 5.2. Caspase-3/7 activation assay
(§3) The caspase 3/7 activation was assessed, as a key indicator in caspase-dependent apoptosis, using ApoONE® Caspase-3/7 kit following the manufacturer’s instructions. This kit used a nonfluorescence substrate […]
(§4) the generation of the fluorescence signals of Rhodamine 110. Thesesignal were measured at 490 nm excitation and 520 nm emission using the fluorescence microplate reader (BMG LabTech, Germany). […]

For data set [4], the system named is HepG-2 cells. Put plainly: MTT cytotoxicity assay, liver cancer cells. It is filed as cell-based, human. Conditions: for IC50: Homo sapiens, HepG2; for Morphological alterations of treated HepG-2 cells: microscopic examination after 72 h, compared to untreated and 5-FU-treated cells; for HepG-2 SI: ratio of IC50 against normal cells (Wi-38) to IC50 against HepG-2. As to the method: (§5) Wi-38, Caco-2 and HepG-2 cells were cultured in DMEM medium-contained 10% FBS, seeded as 5 × 10^3 cells per well in 96-well cell culture plate and incubated at 37 °C in 5% CO2 incubator. After 24 h, serial concentrations of the test compounds were incubated with cells for 72 h. Cell viability was assayed via MTT protocol[27] (Supplementary data). IC50 values of the synthesized compounds were measured via the Graphpad Instat software. Morphological changes were examined using phase contrast inverted microscope with a digital camera (Olympus, Japan). […]
(§6) Normal human lung fibroblast Wi-38 cell line was used to detect cytotoxicity of the studied compounds.
(§7) Wi-38 cell line was cultured in DMEM medium-contained 10% fetal bovine serum (FBS), seeded as 5x10^3 cells per well in 96-well cell culture plate and incubated at 37 °C in 5% CO2 incubator. After 24 h for cell attachment, serial concentrations of the synthetic compounds and standard chemotherapy (5-fluorouracil) were incubated with Wi-38 cells for 72 h. Cell viability was assayed by MTT method Twenty microliters of 5 mg/ml MTT (Sigma, USA) was added to each well and the plate was incubated at 37 °C for 3 h. Then MTT solution was removed, 100 µl DMSO was added, and the absorbance of each well was measured with a microplate reader (BMG LabTech, Germany) at 570 nm. The dose (EC50 and EC100) values (at 50% and100% cell viability, respectively) of the tested compounds was estimated by the Graphpad Instat software.
(§8) The anticancer effect of the above-mentioned compounds was assayed using human colon cancer cell line (Caco-2) and liver cancer cell line (HepG-2) that were cultured in DMEM (Lonza, USA) supplemented with 10%
(§9) FBS. All cancer cells (5x10^3 cells/well) were seeded in sterile 96-well plates. After 24h, serial concentrations of the tested compounds and 5-fluorouracil (Fu) were incubated with two cancer cell lines for 72 h at 37 °C in 5% CO2 incubator. MTT method was done as described above. The half maximal inhibitory concentration (IC50) values were calculated using the Graphpad Instat software. Furthermore, cellular morphological changes before […]
(§10) contrast inverted microscope with a digital camera (Olympus, Japan).
For orientation: Formazan colour is commonly taken as a measure of viable cells.

Data set [5] has as its system Caco-2 cells. Put plainly: MTT cytotoxicity assay, colorectal cancer cells. Conditions: for SI against the screened cell lines: Caco-2 and HepG-2 cells versus Wi-38; for IC50: Homo sapiens; for Caco-2 LE: LE = 1.37 (pIC50)/NHA; for Caco-2 LLE: LLE = pIC50–cLog P; for Morphological alterations of treated Caco-2 cells: microscopic examination after 72 h, compared to untreated and 5-FU-treated cells; for Caco-2 SI: ratio of IC50 against normal cells (Wi-38) to IC50 against Caco-2. It is filed as cell-based, human. As to the method: as §5, §6, §7, §8, §9, §10

The test system of data set [6] is Caco-2 cells. Put plainly: Flow cytometric analysis of apoptosis (annexin V/PI). The class given is cell-based, human. The following applies: IC50 doses, 72 h, annexin-stained, mean ± SEM. As to the method: Reverse: 5′-[…]-3′
5.4. Flow cytometric analysis of apoptosis […]
human colon cancer cell line (Caco-2) for 72 h, at their minimum IC50 doses. After trypsinization, the untreated and treated cancer cells were stained with fluorescein isothiocyanate (FITC)-annexin V/ propidium iodide (PI) for 15 min. After washing with PBS, the annexin-stained apoptotic population was quantified using flow cytometry at FITC signal detector (FL1) against the phycoerythrin emission signal detector (FL2).
For orientation: Flow cytometry measures light scatter and fluorescence of single cells or particles in a stream.

For data set [7], the system named is Wi-38 cells. Description: MTT cytotoxicity assay, normal human fibroblasts. The class given is cell-based. Conditions: 72 h, mean ± SEM; for MNTC: dose at 100% cell viability, read-out: Wi-38 EC100. As to the method: as §5, §6
as §7, with “software. […]” for “software.”

Data set [8] has as its system caspase-3/7. Put plainly: Caspase-3/7 activation assay (ApoONE kit) in Caco-2 cells. The class given is cell-based, human. Conditions: Caco-2 cells treated with IC50 doses; relative to untreated cells; mean ± SEM. As to the method: as §1, §2, §3, §4
A further data set concerns Bcl2. Description: RT-qPCR of Bcl2 expression in Caco-2 cells. The class given is cell-based, human. Conditions: 0.06 µM for 72 h, mean ± SEM. As to the method: RNAs of untreated and treated cancer cells were extracted using Gene JET RNA purification kit (Thermo Scientific, USA). Then cDNAs were synthesized using cDNA Synthesis Kit (Thermo Scientific, USA). Real time PCR was performed using SYBR green master mix and specific primers (Forward/Reverse) as detailed in the supplementary data. […]
5.3. Real-time Quantitative PCR Analysis of Bcl2 […]
µM, for 72 h in 5% CO2 incubator. RNAs of untreated and treated cancer cells were extracted using Gene JET RNA purification kit (Thermo Scientific, USA). Then cDNAs were synthesized using cDNA Synthesis Kit (Thermo Scientific, USA). Real time PCR was performed using SYBR green master mix and specific primers […]
The thermal cycling parameters were pre-denaturation, followed by 40 amplification cycles of 1 min at 95°C and 30 s at 60 °C and at 72°C for 30 sec. GAPDH mRNA was quantified to adjust the amount of mRNA in each sample. The 2−ΔΔCT equation was used to estimate change in gene expressions before and after treatment of cancer cells.
Table 1 primer sequences of the used genes
In general terms: Quantitative PCR measures a nucleic acid by following its amplification.

The mark [9] stands for this setting: MTT, 72 h, mean ± SEM, read-out: HepG-2 IC50.
The mark [10] stands for this setting: read-out: HepG-2 pIC50 (converted).
The mark [11] stands for this setting: Caco-2, -log (IC50), molar, read-out: Caco-2 IC50 (converted).
Where [12] appears, read: Caco-2, MTT, 72 h, mean ± SEM, read-out: Caco-2 IC50 (converted).
Where [13] appears, read: Caco-2 and HepG-2 cells, MTT, read-out: IC50 against the screened cell lines.

For the compound `O=C(Cc1ccccc1)OC1(C(=O)Nc2ccc([N+](=O)[O-])cc2)CCCCC1` [V], the IC50 was 14 nM with HepG-2 cells [1] (MTT) and 44 nM in the data set on Wi-38 cells [2]. For the same compound, the “SI (HepG-2)” value in the data set on HepG-2 cells [1] (Wi-38 vs HepG-2) was 3.091.
Consider `CCOC(=O)c1ccc(NC(=O)C2(OC(=O)[C@H](Cc3ccccc3)NC(=O)Oc3ccccc3)CCCCC2)cc1` [7j, Ethyl-4-(1-((2-((phenoxycarbonyl)amino)-3-phenylpropanoyl)oxy)cyclohexanecarboxamido) benzoate], for which, in the data set with caspase-3/7 [3], the “Relative fold increment in caspase 3/7 activity, HepG-2” value (shortened to “Relative fold increment … HepG-2”) came out at 2.960 ± 0.065 fold. Further, the IC50 in the data set on HepG-2 cells [4] (setting [9]) was 87 ± 7 nM. The IC50 in the data set on HepG-2 cells [4] (setting [10]) is 87.1 nM. Further, in the data set on HepG-2 cells [4], the “Morphological alterations of treated HepG-2 cells” value is “severe shrinkage and morphological alterations”; the “HepG-2 SI” value is 192.689. In addition, in the data set with Caco-2 cells [5], the “SI against the screened cell lines” value was 97–243; the “Caco-2 LE” value is 0.239; the “Caco-2 LLE” value is given as 3.461; the “Morphological alterations of treated Caco-2 cells” value is “severe shrinkage and morphological alterations”. Besides, the “Caco-2 SI” value in the data set on Caco-2 cells [5] came to 242.956. Besides, in the data set on Caco-2 cells [5] (setting [11]), the IC50 is 69 nM. In the data set with Caco-2 cells [5] (setting [12]), the IC50 is 69 ± 6 nM. The IC50 in the data set on Caco-2 cells [5] (setting [13]) is 70 to 120 nM. Also, in the data set with Caco-2 cells [6], the “% Apoptosis (total apoptotic cell population)” value (“% Apoptosis” below) was 52.6% and 52.650 ± 5.310%. Besides, in the data set with Wi-38 cells [7], the MNTC was 1770 ± 694 nM and the IC50 amounted to 16800 ± 637 nM. Also, in the data set on caspase-3/7 [8], the “Relative fold increment in caspase 3/7 activity, Caco-2” value (shortened to “Relative fold increment … Caco-2”) is 3.586 ± 0.098 fold. Further, the “Bcl2 gene relative fold change” value in the data set with Bcl2 was determined as 0.127 ± 0.009 fold.
For `CCOC(=O)c1ccc(NC(=O)C2(OC(=O)Cc3ccccc3)CCCCC2)cc1` [7g, Ethyl-4-(1-(2-phenylacetoxy)cyclohexanecarboxamido)benzoate], the “Relative fold increment … HepG-2” value in the data set with caspase-3/7 [3] was found to be 4.118 ± 0.083 fold. Further, in the data set with HepG-2 cells [4] (setting [9]), the IC50 came to 65 ± 4 nM. The IC50 in the data set with HepG-2 cells [4] (setting [10]) is 65 nM. In the data set on HepG-2 cells [4], the “Morphological alterations of treated HepG-2 cells” value was “severe shrinkage and morphological alterations”; the “HepG-2 SI” value came to 262.723. In the data set with Caco-2 cells [5], the “SI against the screened cell lines” value is reported as 262–266; the “Caco-2 LE” value is listed as 0.328; the “Caco-2 LLE” value is listed as 3.453; the “Morphological alterations of treated Caco-2 cells” value was “severe shrinkage and morphological alterations”. In addition, in the data set on Caco-2 cells [5], the “Caco-2 SI” value is reported as 266.828. The IC50 with Caco-2 cells [5] (setting [11]) was 64.1 nM. Besides, the IC50 with Caco-2 cells [5] (setting [12]) was 64 ± 6 nM. Moreover, in the data set with Caco-2 cells [5] (setting [13]), the IC50 was determined as 60 nM. For the same compound, the “% Apoptosis” value in the data set with Caco-2 cells [6] was 58.7% and 58.730 ± 2.930%. Besides, in the data set on Wi-38 cells [7], the MNTC came to 1300 ± 105 nM and the IC50 was 17100 ± 2150 nM. In addition, the “Bcl2 gene relative fold change” value in the data set on Bcl2 came out at 0.087 ± 0.009 fold.
With `O=c1[nH]cc(F)c(=O)[nH]1` [5-FU, 5-fluorouracil, reference compound], the “Relative fold increment … HepG-2” value in the data set on caspase-3/7 [3] came out at 1.001 ± 0.001 fold. Besides, the IC50 in the data set with HepG-2 cells [4] (setting [9]) was 1610 ± 28 nM; with Caco-2 cells [5] (setting [12]) it was 865 ± 39 nM; in the data set with Wi-38 cells [7], 1990 ± 135 nM. For the same compound, in the data set with HepG-2 cells [4], the “HepG-2 SI” value was determined as 1.233. Moreover, the “Caco-2 SI” value in the data set with Caco-2 cells [5] was 2.301. Moreover, the MNTC in the data set with Wi-38 cells [7] amounted to 840 ± 55 nM. In the data set with caspase-3/7 [8], the “Relative fold increment … Caco-2” value is on record as 1.016 ± 0.009 fold. Besides, the “Bcl2 gene relative fold change” value with Bcl2 was 0.948 ± 0.027 fold.
Turning to `CCOC(=O)c1ccc(NC(=O)C2(OC(=O)Cc3c[nH]c4ccccc34)CCCCC2)cc1` [7a, Ethyl-4-(1-(2-(1H-indol-3-yl)acetoxy)cyclohexanecarboxamido)benzoate], in the data set on caspase-3/7 [3], the “Relative fold increment … HepG-2” value is given as 2.938 ± 0.063 fold. Also, the IC50 with HepG-2 cells [4] (setting [9]) stood at 115 ± 16 nM. For the same compound, the IC50 in the data set on HepG-2 cells [4] (setting [10]) is 115 nM. Further, in the data set with HepG-2 cells [4], the “Morphological alterations of treated HepG-2 cells” value was “severe shrinkage and morphological alterations”; the “HepG-2 SI” value was 97.347. In addition, in the data set on Caco-2 cells [5], the “SI against the screened cell lines” value was 97–243; the “Caco-2 LE” value amounted to 0.292; the “Caco-2 LLE” value amounted to 4.025; the “Morphological alterations of treated Caco-2 cells” value was “severe shrinkage and morphological alterations”. In addition, the “Caco-2 SI” value in the data set with Caco-2 cells [5] came out at 127.215. Further, the IC50 in the data set on Caco-2 cells [5] (setting [11]) is 88.1 nM. The IC50 in the data set with Caco-2 cells [5] (setting [12]) was 88 ± 10 nM. Besides, in the data set on Caco-2 cells [5] (setting [13]), the IC50 is 70 to 120 nM. Moreover, in the data set on Caco-2 cells [6], the “% Apoptosis” value is 50.9% and 50.905 ± 5.975%. Further, in the data set on Wi-38 cells [7], the MNTC was determined as 2980 ± 640 nM and the IC50 is 11200 ± 3750 nM. In addition, the “Relative fold increment … Caco-2” value with caspase-3/7 [8] came to 3.086 ± 0.038 fold. Besides, in the data set with Bcl2, the “Bcl2 gene relative fold change” value is reported as 0.471 ± 0.051 fold.
